One experiment deals with T1, Coagulation factor XII (Homo sapiens, UniProt P00748).
T1 sequence (P00748 whole entry): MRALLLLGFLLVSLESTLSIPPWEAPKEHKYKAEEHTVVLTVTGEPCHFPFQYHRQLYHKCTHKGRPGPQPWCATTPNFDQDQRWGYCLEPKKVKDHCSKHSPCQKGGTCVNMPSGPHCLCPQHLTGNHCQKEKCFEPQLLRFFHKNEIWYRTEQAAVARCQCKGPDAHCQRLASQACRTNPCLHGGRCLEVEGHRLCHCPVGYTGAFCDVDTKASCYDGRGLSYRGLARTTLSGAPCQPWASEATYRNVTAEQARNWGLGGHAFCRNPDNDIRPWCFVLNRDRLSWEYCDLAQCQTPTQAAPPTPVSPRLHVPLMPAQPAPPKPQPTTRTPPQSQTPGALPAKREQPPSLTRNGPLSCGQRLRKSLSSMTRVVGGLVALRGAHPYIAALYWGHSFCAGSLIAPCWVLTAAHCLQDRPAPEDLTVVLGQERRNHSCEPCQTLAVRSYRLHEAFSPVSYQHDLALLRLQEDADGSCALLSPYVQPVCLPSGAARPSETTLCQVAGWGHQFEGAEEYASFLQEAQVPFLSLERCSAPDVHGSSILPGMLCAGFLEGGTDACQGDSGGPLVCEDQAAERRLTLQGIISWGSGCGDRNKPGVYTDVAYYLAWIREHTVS
As to the kind of experiment: Factor XIIa Dose Response Confirmation from Single Well HTS. [Related pubchem assays (depositor defined):AID701]. Type of experiment: functional.

In experiment [1] the target is T2, Dual specificity protein phosphatase 3 (Homo sapiens, UniProt P51452). The experiment in a line: SAR VHR1 Fluorescent Assay for In Vitro dose response studies Set 2. [Related pubchem assays (depositor defined):AID1654, AID1661, AID1878]. In kind it is functional.
T2 sequence (P51452 whole entry): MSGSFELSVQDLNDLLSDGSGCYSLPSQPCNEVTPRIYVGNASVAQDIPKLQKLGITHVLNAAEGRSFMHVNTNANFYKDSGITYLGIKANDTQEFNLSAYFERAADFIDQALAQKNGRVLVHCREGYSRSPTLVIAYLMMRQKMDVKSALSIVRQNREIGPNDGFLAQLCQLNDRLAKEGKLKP
Experiment [2] deals with T3, Tyrosine-protein phosphatase non-receptor type 7 (Homo sapiens, UniProt P35236).
T3 sequence (P35236 whole entry): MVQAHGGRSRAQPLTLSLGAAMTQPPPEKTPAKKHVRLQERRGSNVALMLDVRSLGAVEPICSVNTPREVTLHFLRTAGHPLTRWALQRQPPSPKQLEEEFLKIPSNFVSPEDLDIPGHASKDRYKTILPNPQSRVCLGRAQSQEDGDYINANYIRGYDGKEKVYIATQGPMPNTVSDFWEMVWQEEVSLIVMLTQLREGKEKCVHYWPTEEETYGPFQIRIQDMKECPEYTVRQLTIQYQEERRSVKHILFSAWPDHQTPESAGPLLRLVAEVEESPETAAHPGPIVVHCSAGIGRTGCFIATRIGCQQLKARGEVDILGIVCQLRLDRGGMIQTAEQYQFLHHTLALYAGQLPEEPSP
The experiment in a line: redox-dependent HePTP inhibition, mechanism study, biochemical, fluorescence (AID 2068). In kind it is functional.

Experiment [3] concerns the target T2, Dual specificity protein phosphatase 3. As to the kind of experiment: SAR VHR1 Fluorescent Assay for In Vitro dose response studies. [Related pubchem assays (depositor defined):AID1654, AID1661, AID1878, AID1992, AID2004, AID2070, AID2085]. Type of experiment: functional.
The target is the same in experiment [4]. The experiment in a line: SAR VHR1 absorbance Assay for In Vitro dose response studies. [Related pubchem assays (depositor defined):AID1654, AID1661, AID1878, AID1992, AID2004].
Experiment [5] addresses Dual specificity protein phosphatase 6 (Rattus norvegicus, UniProt Q64346). Type of experiment: functional.
The target of experiment [6] is Voltage-dependent T-type calcium channel subunit alpha-1H (Homo sapiens, UniProt O95180). The experiment in a line: Cav3.2 T-type channel inhibitors, synthesized analogs, SAR follow-up, cell-based, synthetic library set 2, HEK293 HH8, Fluo-4 (AID 493023). In kind it is functional.
The target in a further experiment is T4, Hexokinase HKDC1 (Homo sapiens, UniProt Q2TB90).
T4 sequence (Q2TB90 whole entry): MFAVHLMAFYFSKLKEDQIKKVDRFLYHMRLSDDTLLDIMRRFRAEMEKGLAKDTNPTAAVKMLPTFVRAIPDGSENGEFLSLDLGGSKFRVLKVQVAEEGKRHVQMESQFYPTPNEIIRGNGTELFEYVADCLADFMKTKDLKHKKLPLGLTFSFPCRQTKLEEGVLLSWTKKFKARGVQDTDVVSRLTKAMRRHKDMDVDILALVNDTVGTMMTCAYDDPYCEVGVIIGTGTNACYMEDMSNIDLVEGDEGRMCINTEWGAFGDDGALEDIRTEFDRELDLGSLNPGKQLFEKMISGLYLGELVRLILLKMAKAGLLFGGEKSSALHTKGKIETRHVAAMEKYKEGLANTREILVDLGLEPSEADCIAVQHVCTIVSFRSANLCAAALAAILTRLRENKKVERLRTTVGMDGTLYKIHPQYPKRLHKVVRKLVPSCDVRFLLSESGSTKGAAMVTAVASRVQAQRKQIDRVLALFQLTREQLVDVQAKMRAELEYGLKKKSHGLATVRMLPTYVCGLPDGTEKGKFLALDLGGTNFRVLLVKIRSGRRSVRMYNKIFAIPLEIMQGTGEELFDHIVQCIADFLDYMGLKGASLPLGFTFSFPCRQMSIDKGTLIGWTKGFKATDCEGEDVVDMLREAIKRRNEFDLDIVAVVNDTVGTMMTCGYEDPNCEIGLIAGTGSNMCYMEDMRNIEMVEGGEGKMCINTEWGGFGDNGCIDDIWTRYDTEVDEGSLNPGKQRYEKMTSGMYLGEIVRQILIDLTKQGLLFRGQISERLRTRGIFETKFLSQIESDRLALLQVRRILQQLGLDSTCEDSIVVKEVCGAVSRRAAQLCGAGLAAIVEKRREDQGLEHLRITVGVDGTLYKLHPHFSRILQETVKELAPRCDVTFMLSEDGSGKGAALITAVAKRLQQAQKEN
As to the kind of experiment: HKDC1 hexokinase activators, dose response, biochemical, W721R variant (AID 504730). Type of experiment: functional.

Experiment [7] deals with Peroxisome proliferator-activated receptor gamma/Nuclear receptor coactivator 2 (Homo sapiens, UniProt P37231). In kind it is functional.
The nature of experiment [8]: inhibitors of intracellular T. cruzi replication, confirmation, NIH3T3 host cells, beta-gal luminescence (AID 2044).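 Also: intracellular parasites grown in NIH/3T3 mouse fibroblasts as host cells; luminescent beta-galactosidase reporter signal from transgenic T. cruzi replicating inside host cells; inhibitors lower the luminescence signal.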 Type of experiment: functional, cell-based.
A further experiment addresses Hexokinase-1 (Homo sapiens, UniProt P19367). The experiment in a line: hexokinase 1 activators, dose response, selectivity assay for HKDC1 activator project, biochemical (AID 504762). Type of experiment: functional.
Experiment [9] addresses Peroxisome proliferator-activated receptor gamma/Nuclear receptor coactivator 1 (Homo sapiens, UniProt P37231). In kind it is functional.
Experiment [10] concerns HEK293. As to the kind of experiment: cells. Particulars: Homo sapiens.
For experiment [11], the target named is Peroxisome proliferator-activated receptor gamma/Nuclear receptor coactivator 3 (Homo sapiens, UniProt P37231). Type of experiment: functional.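 Also: agonist potency for raising coactivator recruitment to the receptor.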
Sequence of Peroxisome proliferator-activated receptor gamma/Nuclear receptor coactivator 3 (P37231 whole entry): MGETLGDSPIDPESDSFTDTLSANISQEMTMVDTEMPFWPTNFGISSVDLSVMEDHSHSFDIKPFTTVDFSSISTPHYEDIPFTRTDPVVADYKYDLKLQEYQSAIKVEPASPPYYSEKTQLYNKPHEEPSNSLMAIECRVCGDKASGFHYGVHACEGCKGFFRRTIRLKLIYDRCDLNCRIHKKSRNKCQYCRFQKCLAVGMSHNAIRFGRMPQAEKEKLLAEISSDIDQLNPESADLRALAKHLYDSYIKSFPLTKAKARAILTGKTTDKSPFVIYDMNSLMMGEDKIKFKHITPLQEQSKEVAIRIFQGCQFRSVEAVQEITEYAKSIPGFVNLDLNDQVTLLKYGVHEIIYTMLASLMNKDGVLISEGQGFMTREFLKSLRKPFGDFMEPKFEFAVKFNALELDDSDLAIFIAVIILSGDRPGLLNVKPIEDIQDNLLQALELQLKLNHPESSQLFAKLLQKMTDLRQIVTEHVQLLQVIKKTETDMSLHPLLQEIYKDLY
Sequence of Peroxisome proliferator-activated receptor gamma/Nuclear receptor coactivator 3 (Q9Y6Q9 whole entry, further chain): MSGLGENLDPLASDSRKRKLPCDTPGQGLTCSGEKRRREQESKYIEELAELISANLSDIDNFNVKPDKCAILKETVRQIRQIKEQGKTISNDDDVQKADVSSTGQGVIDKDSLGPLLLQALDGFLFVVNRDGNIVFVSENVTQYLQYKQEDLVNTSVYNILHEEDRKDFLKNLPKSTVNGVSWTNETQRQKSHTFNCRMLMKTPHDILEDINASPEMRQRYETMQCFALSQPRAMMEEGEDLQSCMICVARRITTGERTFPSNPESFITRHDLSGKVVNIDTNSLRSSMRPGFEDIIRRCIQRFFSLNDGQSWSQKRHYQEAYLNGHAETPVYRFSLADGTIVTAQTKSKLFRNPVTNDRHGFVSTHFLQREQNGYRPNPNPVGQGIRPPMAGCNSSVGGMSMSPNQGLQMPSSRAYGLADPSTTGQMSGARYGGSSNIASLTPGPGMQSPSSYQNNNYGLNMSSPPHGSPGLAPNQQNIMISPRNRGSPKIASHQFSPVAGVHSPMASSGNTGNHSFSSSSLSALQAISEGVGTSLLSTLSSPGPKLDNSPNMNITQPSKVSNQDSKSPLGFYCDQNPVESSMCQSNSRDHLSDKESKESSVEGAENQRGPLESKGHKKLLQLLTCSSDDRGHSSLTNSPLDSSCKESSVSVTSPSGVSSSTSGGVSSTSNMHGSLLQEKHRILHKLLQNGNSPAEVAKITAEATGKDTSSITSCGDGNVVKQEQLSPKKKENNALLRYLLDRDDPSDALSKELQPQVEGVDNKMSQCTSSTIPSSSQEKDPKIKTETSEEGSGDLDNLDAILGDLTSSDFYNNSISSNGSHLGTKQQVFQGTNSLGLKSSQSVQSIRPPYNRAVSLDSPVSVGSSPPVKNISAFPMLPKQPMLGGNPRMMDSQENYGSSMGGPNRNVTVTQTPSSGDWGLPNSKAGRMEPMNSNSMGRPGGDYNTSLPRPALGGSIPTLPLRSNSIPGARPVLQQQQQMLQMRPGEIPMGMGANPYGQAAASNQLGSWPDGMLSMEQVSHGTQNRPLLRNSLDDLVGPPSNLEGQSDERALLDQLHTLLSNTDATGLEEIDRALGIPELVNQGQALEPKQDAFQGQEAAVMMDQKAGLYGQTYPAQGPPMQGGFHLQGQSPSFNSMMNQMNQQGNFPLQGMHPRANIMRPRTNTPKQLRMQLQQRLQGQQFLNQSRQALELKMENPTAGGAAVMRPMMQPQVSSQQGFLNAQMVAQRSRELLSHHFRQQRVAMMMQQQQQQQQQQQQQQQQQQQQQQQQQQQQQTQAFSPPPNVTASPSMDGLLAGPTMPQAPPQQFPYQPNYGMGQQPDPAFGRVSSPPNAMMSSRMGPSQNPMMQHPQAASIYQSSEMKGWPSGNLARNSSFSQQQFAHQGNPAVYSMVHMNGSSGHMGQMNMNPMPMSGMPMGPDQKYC
Experiment [12] has as its system HEK293. The experiment in a line: cells. To be noted: Homo sapiens. The source holds these as a separate data set.
For experiment [13], the target named is T5, Heat shock factor protein 1 (Mus musculus, UniProt P38532).
T5 sequence (P38532 whole entry): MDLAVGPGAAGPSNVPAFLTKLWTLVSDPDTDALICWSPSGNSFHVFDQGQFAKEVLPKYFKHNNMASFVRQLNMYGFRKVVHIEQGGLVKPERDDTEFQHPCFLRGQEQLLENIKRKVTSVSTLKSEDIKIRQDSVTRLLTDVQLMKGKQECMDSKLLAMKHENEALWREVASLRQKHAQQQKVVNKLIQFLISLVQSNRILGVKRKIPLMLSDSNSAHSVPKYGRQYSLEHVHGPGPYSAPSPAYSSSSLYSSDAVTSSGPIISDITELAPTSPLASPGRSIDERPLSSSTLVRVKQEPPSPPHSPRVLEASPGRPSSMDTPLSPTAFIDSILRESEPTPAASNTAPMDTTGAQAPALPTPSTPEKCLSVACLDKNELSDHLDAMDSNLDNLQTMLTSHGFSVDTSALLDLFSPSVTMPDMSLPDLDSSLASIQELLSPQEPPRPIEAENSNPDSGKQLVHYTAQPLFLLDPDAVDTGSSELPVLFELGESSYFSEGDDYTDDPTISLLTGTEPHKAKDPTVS
The experiment in a line: HSF1 potentiators in luciferase reporter cells, confirmation, cell-based, NIH3T3, luminescence, dose retest (AID 435004).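 Also: stress induced by proteasome inhibitor MG132 added 30 min after compound; luciferase reporter driven by HSF1 response element in NIH3T3 cells; actives raise luminescence as potentiators of the MG132 stress response.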 Type of experiment: functional. For orientation: Reporter assays use an easily measured gene product as a stand-in for the process of interest.

The structures appear in SMILES notation. Active and inactive are the calls of the source. Some results are limits rather than exact numbers.

Sequence of Peroxisome proliferator-activated receptor gamma/Nuclear receptor coactivator 1 (P37231 whole entry): as the sequence (P37231 whole entry) above
Sequence of Peroxisome proliferator-activated receptor gamma/Nuclear receptor coactivator 1 (Q15788 whole entry, further chain): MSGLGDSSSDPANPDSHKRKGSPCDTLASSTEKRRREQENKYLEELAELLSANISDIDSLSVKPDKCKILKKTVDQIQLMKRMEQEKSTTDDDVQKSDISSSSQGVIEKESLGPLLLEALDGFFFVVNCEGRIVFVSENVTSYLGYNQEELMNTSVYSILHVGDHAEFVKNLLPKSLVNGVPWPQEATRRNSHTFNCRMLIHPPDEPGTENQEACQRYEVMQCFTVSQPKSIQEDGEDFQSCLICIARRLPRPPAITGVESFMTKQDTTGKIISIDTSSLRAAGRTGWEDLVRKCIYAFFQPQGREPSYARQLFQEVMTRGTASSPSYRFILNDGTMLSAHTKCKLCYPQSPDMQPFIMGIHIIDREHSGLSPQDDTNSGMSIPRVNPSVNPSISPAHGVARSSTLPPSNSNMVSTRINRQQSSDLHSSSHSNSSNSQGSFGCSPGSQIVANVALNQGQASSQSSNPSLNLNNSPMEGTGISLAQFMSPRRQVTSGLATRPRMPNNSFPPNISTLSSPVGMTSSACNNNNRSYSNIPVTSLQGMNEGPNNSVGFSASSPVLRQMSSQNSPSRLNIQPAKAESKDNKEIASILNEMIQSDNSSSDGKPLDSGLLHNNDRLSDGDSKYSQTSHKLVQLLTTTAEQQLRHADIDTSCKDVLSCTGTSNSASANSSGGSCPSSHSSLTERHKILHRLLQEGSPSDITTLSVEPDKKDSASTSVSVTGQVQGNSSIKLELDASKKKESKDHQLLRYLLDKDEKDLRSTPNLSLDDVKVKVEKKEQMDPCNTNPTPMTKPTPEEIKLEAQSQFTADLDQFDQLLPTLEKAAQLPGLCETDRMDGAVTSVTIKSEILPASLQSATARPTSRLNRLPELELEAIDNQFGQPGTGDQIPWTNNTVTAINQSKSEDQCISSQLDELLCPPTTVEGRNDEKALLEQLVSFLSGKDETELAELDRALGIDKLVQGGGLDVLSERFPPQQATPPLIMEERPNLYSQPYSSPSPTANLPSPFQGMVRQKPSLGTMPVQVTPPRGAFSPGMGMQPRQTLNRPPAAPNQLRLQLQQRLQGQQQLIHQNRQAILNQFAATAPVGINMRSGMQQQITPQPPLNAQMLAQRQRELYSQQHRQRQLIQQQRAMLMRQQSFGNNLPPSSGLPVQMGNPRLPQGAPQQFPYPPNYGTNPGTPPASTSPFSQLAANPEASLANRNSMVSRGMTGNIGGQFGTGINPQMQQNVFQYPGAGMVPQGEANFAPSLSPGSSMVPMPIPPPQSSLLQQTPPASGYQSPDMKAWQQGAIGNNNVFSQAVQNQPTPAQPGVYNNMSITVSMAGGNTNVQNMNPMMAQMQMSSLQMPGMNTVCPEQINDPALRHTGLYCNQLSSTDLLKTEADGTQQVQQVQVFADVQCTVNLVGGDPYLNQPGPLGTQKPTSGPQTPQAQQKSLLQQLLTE
Sequence of Dual specificity protein phosphatase 6 (Q64346 whole entry): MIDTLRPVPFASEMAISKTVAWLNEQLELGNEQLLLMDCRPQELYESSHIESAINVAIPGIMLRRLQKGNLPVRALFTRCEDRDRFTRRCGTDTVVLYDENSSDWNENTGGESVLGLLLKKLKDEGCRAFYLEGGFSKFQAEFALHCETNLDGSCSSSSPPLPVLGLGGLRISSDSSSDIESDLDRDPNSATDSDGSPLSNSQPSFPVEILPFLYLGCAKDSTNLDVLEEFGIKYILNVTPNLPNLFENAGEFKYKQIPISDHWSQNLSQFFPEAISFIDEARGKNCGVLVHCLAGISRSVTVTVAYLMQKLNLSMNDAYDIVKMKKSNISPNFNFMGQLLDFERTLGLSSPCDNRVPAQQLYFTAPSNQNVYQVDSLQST

`COC(=O)[C@H](C)NC(=O)NC(C)CCc1ccccc1` (stereo partly specified): on Coagulation factor XII, the IC50 (as a rule, the concentration needed to halve the response being measured) is > 50 µM (inactive).
Consider `CN(C)S(=O)(=O)c1cc(C(=O)NC2CCSc3ccccc32)ccc1Cl` (stereo unspecified), for which the IC50 in experiment [1], in [2], in experiment [3], in [4] and in experiment [5] was > 100 µM (inactive) throughout.
Consider `O=C(NC1CCC2CN(Cc3ccccc3)CC21)c1ccc(Cl)cc1Cl` (stereo unspecified), for which the EC50 (in general, the concentration giving half of the maximal effect) in experiment [6] was 10 µM (active).
For `O=C(CSc1cccc2cccnc12)N/N=C/c1cccnc1`, the EC50 is 27.6 µM (inactive) on Hexokinase HKDC1; > 79.4 µM (not active) in experiment [7]; 0.579 µM (active) in [8]; > 80 µM (inactive) on Hexokinase-1; > 79.4 µM (not active) in experiment [9]; > 59.6 µM (inactive) in the experiment on HEK293 [10]. Also, the EC50 is > 79.4 µM (not active) in experiment [11], > 59.6 µM (inactive) in the experiment on HEK293 [12] and 6.99 µM (active) in experiment [13].

The values above are taken from ChEMBL document CHEMBL1201862, “PubChem BioAssay data set” (2004).
